Reference: ChEMBL document CHEMBL1145513, “S-adenosylmethionine-dependent protein methylation in mammalian cytosol via tyrphostin modification by catechol-O-methyltransferase” (J Biol Chem, 2007)
Calls of active or inactive are those of the source. The rule behind the calls is not given here.

Organism: Sus scrofa
Assay: Inhibition of pig recombinant catechol-O-methyltransferase at 100 uM
In the case of `N#CC(C#N)=Cc1cc(O)c(O)c([N+](=O)[O-])c1`, the Activity is reported as “Active”.

Organism: Sus scrofa
Assay: Activity of pig recombinant catechol-O-methyltransferase assessed per unit enzyme
With `COc1c(C(C)(C)C)cc(C=C(C#N)C#N)cc1C(C)(C)C` the Activity was 0.04 pmol/min. Work on `N#C/C(=C\c1ccc(O)c(O)c1)C(N)=O` yielded an Activity of 2.98 pmol/min. For `N#CC(C#N)=Cc1cc(O)c(O)c(O)c1`, the Activity was 1.65 pmol/min. Molecule `N#CC(C#N)=Cc1ccc(O)c(O)c1` has an Activity of 2.44 pmol/min. In the case of `C[C@H](NC(=O)/C(C#N)=C/c1ccc(O)c(O)c1)c1ccccc1`, the Activity is reported as 3.08 pmol/min. `N#C/C(=C\c1ccc(O)c(O)c1)C(=O)NCCCc1ccccc1` gave an Activity of 3.11 pmol/min. `N#C/C(=C\c1ccc(O)c(O)c1)C(=O)NCc1ccccc1` was tested, and the Activity was 3.06 pmol/min. `N#C/C(=C\c1ccc(O)c(O)c1)C(N)=S` was tested, and the Activity was 2.45 pmol/min. Molecule `N#CC(C#N)=Cc1cc(O)c(O)c([N+](=O)[O-])c1` has an Activity of 0.05 pmol/min. Molecule `N#CC(C#N)=Cc1ccc(O)cc1` has an Activity of 0.05 pmol/min. With `C[C@@H](NC(=O)/C(C#N)=C/c1ccc(O)c(O)c1)c1ccccc1` the Activity was 3.06 pmol/min. With `N#C/C(=C\c1ccc(O)c(O)c1)C(=O)O` the Activity was 3.67 pmol/min. `N#C/C(=C\c1ccc(O)c(O)c1)C(=O)NCCCCc1ccccc1` was tested, and the Activity was 2.84 pmol/min. `N#CC(C#N)=C(N)/C(C#N)=C/c1cc(O)c(O)c(O)c1` was tested, and the Activity was 1.79 pmol/min.
